Assay [1] has as its target T1, AEA-DA lipid probe targets in Neuro2a cells (Mus musculus, UniProt O08547).
T1 sequence (O08547 1-215): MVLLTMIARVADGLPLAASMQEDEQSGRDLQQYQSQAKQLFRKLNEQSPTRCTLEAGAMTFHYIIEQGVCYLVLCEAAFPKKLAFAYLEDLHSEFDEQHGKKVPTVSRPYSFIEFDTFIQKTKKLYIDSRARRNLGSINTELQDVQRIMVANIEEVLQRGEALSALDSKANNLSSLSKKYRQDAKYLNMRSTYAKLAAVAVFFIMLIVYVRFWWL

Assay [2] addresses T2, AEA-DA lipid probe targets in Neuro2a cells (Mus musculus, UniProt O35114).
T2 sequence (O35114 1-478): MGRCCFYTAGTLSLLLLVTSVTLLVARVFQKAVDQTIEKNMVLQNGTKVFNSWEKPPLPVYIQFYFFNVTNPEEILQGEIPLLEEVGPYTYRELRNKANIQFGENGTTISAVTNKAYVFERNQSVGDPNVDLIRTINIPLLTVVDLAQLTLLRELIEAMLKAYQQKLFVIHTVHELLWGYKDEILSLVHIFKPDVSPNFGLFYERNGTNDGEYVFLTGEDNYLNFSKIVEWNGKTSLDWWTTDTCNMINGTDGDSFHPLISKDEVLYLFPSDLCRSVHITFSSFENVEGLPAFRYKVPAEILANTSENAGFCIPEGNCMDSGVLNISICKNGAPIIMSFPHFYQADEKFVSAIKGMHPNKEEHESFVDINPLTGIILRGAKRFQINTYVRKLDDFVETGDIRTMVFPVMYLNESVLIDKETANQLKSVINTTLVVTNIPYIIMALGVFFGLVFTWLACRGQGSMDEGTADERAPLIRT

Assay [3] has as its target T3, AEA-DA lipid probe targets in Neuro2a cells (Mus musculus, UniProt Q5XJY4).
T3 sequence (Q5XJY4 51-377): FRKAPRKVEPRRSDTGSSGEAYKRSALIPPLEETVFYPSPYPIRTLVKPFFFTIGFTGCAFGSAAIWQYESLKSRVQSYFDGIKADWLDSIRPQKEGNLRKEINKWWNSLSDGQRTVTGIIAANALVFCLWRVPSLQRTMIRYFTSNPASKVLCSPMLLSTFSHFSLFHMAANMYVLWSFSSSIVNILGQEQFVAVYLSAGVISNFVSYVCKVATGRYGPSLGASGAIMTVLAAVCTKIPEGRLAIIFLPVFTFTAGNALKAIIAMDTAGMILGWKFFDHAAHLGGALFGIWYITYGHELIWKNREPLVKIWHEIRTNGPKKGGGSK

Assay [4] has as its target AEA-DA lipid probe targets in Neuro2a cells (Mus musculus, UniProt Q62351).
The target of assay [5] is T4, AEA-DA lipid probe targets in Neuro2a cells (Mus musculus, UniProt Q8VBZ3).
T4 sequence (Q8VBZ3 1-664): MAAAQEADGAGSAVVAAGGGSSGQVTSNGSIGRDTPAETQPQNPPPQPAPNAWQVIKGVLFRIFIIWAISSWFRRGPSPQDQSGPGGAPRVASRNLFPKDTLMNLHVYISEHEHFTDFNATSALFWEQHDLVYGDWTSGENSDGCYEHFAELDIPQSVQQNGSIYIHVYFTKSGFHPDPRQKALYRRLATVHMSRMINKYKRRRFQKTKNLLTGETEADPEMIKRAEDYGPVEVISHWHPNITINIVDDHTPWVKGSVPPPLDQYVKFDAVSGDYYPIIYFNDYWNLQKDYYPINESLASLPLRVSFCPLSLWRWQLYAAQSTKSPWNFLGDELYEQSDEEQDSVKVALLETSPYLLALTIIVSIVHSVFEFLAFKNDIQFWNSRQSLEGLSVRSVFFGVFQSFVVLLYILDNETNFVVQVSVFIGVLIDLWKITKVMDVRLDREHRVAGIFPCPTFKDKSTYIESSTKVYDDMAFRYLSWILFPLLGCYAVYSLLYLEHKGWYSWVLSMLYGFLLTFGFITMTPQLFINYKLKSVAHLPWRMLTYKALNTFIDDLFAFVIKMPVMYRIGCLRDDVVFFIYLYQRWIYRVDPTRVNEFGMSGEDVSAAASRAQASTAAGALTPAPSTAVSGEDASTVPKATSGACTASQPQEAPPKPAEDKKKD

Assay [6] addresses T5, AEA-DA lipid probe targets in Neuro2a cells (Mus musculus, UniProt Q8VCB1).
T5 sequence (Q8VCB1 1-673): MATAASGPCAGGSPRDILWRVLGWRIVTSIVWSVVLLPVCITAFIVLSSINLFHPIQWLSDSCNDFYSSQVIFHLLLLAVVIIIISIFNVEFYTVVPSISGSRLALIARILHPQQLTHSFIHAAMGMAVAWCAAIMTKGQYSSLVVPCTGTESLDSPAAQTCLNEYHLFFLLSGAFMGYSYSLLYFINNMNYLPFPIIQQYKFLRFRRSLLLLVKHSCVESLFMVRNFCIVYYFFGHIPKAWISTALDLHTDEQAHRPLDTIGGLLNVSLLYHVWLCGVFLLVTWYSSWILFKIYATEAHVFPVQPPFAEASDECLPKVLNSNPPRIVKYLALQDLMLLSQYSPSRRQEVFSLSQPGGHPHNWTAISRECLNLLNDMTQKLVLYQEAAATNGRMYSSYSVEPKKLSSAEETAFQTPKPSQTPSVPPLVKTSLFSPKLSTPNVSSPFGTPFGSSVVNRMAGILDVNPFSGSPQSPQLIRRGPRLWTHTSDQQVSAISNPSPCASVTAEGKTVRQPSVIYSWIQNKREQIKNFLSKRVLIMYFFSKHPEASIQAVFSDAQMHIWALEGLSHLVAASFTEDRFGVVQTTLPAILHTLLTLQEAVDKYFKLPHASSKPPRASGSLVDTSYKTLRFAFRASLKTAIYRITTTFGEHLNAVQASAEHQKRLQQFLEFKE
To be noted: for SILAC ratio, TMEM48 (Q8VCB1): Neuro2a cells, AEA-DA probe.

Assay [7] deals with T6, AEA-DA lipid probe targets in Neuro2a cells (Mus musculus, UniProt Q9JMF7).
T6 sequence (Q9JMF7 1-238): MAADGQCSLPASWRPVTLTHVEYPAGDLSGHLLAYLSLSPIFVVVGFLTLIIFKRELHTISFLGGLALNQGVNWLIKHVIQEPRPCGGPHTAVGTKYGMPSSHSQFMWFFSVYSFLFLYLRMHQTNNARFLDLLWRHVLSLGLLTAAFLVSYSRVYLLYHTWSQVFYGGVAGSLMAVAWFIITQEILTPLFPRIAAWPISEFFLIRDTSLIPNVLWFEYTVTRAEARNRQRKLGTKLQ

Like-named read-outs stand apart in the source and are kept apart here.

These results are taken from patent US10168342B2, “Lipid probes and uses thereof” (THE SCRIPPS RESEARCH INSTITUTE, priority 2015, dated 2019).

Sequence of AEA-DA lipid probe targets in Neuro2a cells (Mus musculus, UniProt Q62351) (Q62351 whole entry): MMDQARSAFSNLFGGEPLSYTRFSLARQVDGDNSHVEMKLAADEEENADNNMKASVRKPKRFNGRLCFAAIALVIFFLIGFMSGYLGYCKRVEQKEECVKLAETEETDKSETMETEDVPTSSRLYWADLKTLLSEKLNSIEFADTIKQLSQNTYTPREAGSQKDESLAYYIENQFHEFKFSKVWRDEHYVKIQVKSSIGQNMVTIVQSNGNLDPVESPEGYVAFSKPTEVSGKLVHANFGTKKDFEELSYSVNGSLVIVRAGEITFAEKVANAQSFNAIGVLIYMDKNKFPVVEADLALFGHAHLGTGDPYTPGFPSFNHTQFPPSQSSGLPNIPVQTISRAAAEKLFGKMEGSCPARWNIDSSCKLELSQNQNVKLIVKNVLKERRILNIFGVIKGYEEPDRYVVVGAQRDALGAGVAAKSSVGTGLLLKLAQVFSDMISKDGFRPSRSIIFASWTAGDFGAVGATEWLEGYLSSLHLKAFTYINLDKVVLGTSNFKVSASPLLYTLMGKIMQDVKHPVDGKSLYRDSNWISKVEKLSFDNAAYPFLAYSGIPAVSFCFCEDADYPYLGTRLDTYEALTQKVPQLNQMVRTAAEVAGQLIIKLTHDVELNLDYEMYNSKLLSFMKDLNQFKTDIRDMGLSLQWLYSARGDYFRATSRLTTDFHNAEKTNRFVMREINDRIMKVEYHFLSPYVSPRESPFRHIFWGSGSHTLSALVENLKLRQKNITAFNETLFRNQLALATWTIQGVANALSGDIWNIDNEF

As for `C=CCN(C)CCCCCCOc1ccc(C(=O)c2ccc(Br)cc2)c(F)c1` [Ro 48-8071, reference compound], in assay [1] (competitor 25 μM), the “SILAC ratio, Sec22b” value came out at 1.1. Besides, the “SILAC ratio Scarb2” value in assay [2] (competitor 25 μM) is given as 1.1. The “SILAC ratio Parl” value in assay [3] (competitor 25 μM) was 1.1. Moreover, in assay [4] (competitor 25 μM), the “SILAC ratio Tfrc” value is recorded as 0.8. Further, the “SILAC ratio, Clptm1” value in assay [5] (competitor 25 μM) worked out at 1.2. Besides, in assay [6] (competitor 25 μM), the “SILAC ratio, TMEM48 (Q8VCB1)” value is recorded as 1.1 and the “SILAC ratio, Tmem48” value stood at 1.1. Moreover, the “SILAC ratio, Dolpp1” value in assay [7] (competitor 25 μM) stood at 1.3.
As for `CN1CCN(C(=O)c2[nH]c3ccc([N+](=O)[O-])cc3c2-c2ccccc2)CC1` [MJN228, (4-Methylpiperazin-1-yl)(5-nitro-3-phenyl-1H-indol-2-yl)methanone], the “SILAC ratio, Sec22b” value is 1.5 in assay [1] (competitor 10 μM), 1.6 in assay [1] (competitor 25 μM), 2.0 in assay [1] (competitor 50 μM) and 2.0 in assay [1] (competitor 100 μM). Besides, the “SILAC ratio Scarb2” value in assay [2] (competitor 10 μM) turned out to be 1.3; in assay [2] (competitor 25 μM), 1.5; in assay [2] (competitor 50 μM), 1.7; in assay [2] (competitor 100 μM), 1.9. In addition, the “SILAC ratio Parl” value in assay [3] (competitor 10 μM) stood at 1.3; in assay [3] (competitor 25 μM), 1.4; in assay [3] (competitor 50 μM), 1.1; in assay [3] (competitor 100 μM), 1.9. Further, the “SILAC ratio Tfrc” value was determined as 1.1 in assay [4] (competitor 10 μM), 1.0 in assay [4] (competitor 25 μM), 1.0 in assay [4] (competitor 50 μM) and 1.0 in assay [4] (competitor 100 μM). Moreover, the “SILAC ratio, Clptm1” value in assay [5] (competitor 10 μM) came to 1.3; in assay [5] (competitor 25 μM), 1.6; in assay [5] (competitor 50 μM), 1.6; in assay [5] (competitor 100 μM), 2.5. Besides, in assay [6] (competitor 25 μM), the “SILAC ratio, TMEM48 (Q8VCB1)” value was 1.5. In addition, the “SILAC ratio, Tmem48” value worked out at 1.3 in assay [6] (competitor 10 μM), 1.5 in assay [6] (competitor 25 μM), 1.9 in assay [6] (competitor 50 μM) and 2.8 in assay [6] (competitor 100 μM). The “SILAC ratio, Dolpp1” value in assay [7] (competitor 10 μM) worked out at 1.2; in assay [7] (competitor 25 μM) it was 1.6; in assay [7] (competitor 50 μM), 1.9; in assay [7] (competitor 100 μM), 3.3.
For `CCCCC/C=C\C/C=C\C/C=C\C/C=C\CCCC(=O)NCCO` [AEA, anandamide, reference compound], the “SILAC ratio, Sec22b” value in assay [1] (competitor 200 μM) is recorded as 1.4. Further, the “SILAC ratio Scarb2” value in assay [2] (competitor 200 μM) was found to be 1.5. In assay [3] (competitor 200 μM), the “SILAC ratio Parl” value was determined as 1.3. In assay [4] (competitor 200 μM), the “SILAC ratio Tfrc” value is reported as 1.0. Further, in assay [5] (competitor 200 μM), the “SILAC ratio, Clptm1” value amounted to 2.3. In assay [6] (competitor 200 μM), the “SILAC ratio, TMEM48 (Q8VCB1)” value came out at 1.9 and the “SILAC ratio, Tmem48” value came out at 1.9. For the same compound, the “SILAC ratio, Dolpp1” value in assay [7] (competitor 200 μM) came out at 2.2.
With `CN1CCN(C(=O)c2c(-c3ccccc3)c3cc([N+](=O)[O-])ccc3n2C)CC1` [KML110, (1-Methyl-5-nitro-3-phenyl-1H-indol-2-yl)(4-methylpiperazin-1-yl)methanone], the “SILAC ratio, Sec22b” value in assay [1] (competitor 25 μM) was determined as 1.4. The “SILAC ratio Scarb2” value in assay [2] (competitor 25 μM) is 1.3. Also, the “SILAC ratio Parl” value in assay [3] (competitor 25 μM) is 1.3. Moreover, the “SILAC ratio Tfrc” value in assay [4] (competitor 25 μM) is 1.1. The “SILAC ratio, Clptm1” value in assay [5] (competitor 25 μM) was found to be 1.5. Also, in assay [6] (competitor 25 μM), the “SILAC ratio, Tmem48” value is on record as 1.6. Further, in assay [7] (competitor 25 μM), the “SILAC ratio, Dolpp1” value was found to be 1.6.
As for `O=C(/C=C/c1cccnc1)NCCCCC1CCN(C(=O)c2ccccc2)CC1` [FK-866, reference compound], in assay [1] (competitor 25 μM), the “SILAC ratio, Sec22b” value is recorded as 1.2. Besides, the “SILAC ratio Scarb2” value in assay [2] (competitor 25 μM) came to 1.1. In addition, the “SILAC ratio Parl” value in assay [3] (competitor 25 μM) is recorded as 1.3. The “SILAC ratio Tfrc” value in assay [4] (competitor 25 μM) is on record as 1.1. Besides, the “SILAC ratio, Clptm1” value in assay [5] (competitor 25 μM) stood at 1.1. Also, in assay [6] (competitor 25 μM), the “SILAC ratio, TMEM48 (Q8VCB1)” value was found to be 1.2 and the “SILAC ratio, Tmem48” value is 1.2. The “SILAC ratio, Dolpp1” value in assay [7] (competitor 25 μM) was 1.2.
